Measured values as given in patent US12649750B2, “Macrocyclic compounds, compositions, and methods of using thereof” (Sionna Therapeutics Inc., priority 2022, dated 2026).

Experiments:
NBD1 = target: T1, NBD1 (Homo sapiens, UniProt P13569); experiment: Aggregation analysis using differential static light scattering (DSLS), thermal stability of NBD1 (ΔTagg); type: binding; settings: ΔTagg versus DMSO control, NBD1 0.2 mg/ml
T1 construct: Purified recombinant NBD1 was produced using previously described methods; made in house
Method in brief: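 Differential static light scattering read from 25° C. to 70° C. every 0.5° C., ramp 1° C./min, on recombinant NBD1 (0.2 mg/ml; Tris/NaCl/MgCl2 buffer with 2 mM ATP, 2 mM DTT, pH 7.6, 1% glycerol) plus compound. Reported ΔTagg subtracts averaged DMSO Tagg from inflection-point Tagg; categories A ≤5, B >5-10, C >10-25° C.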

CFTR = target: T2, CFTR (Homo sapiens, UniProt P13569, DEL508-508); experiment: TECC24 AUC fold over DMSO @10 μM, CFTR-mediated transepithelial chloride transport in CF-HBE cells; type: cell-based; settings: test agent AUC divided by DMSO vehicle AUC, primary CF-HBE cells, ΔF508 homozygous donor, 48 hours incubation
T2 construct: Primary human bronchial epithelial cells from a ΔF508 homozygous CF donor; host or cells: primary human bronchial epithelial cells (CF-HBE), ΔF508 homozygous donor
Method in brief: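 Value is ratio of test-agent to DMSO AUC of equivalent transepithelial Cl− current, integrated from forskolin (10 μM) stimulation to CFTR inhibitor-172 (20 μM) block, with benzamil 10 μM present. CF-HBE (ΔF508/ΔF508) cultures had 48 h compound exposure at 10 μM, 36.5° C before recording.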

T2 sequence (P13569 with tags, fused parts or gaps DEL508-508): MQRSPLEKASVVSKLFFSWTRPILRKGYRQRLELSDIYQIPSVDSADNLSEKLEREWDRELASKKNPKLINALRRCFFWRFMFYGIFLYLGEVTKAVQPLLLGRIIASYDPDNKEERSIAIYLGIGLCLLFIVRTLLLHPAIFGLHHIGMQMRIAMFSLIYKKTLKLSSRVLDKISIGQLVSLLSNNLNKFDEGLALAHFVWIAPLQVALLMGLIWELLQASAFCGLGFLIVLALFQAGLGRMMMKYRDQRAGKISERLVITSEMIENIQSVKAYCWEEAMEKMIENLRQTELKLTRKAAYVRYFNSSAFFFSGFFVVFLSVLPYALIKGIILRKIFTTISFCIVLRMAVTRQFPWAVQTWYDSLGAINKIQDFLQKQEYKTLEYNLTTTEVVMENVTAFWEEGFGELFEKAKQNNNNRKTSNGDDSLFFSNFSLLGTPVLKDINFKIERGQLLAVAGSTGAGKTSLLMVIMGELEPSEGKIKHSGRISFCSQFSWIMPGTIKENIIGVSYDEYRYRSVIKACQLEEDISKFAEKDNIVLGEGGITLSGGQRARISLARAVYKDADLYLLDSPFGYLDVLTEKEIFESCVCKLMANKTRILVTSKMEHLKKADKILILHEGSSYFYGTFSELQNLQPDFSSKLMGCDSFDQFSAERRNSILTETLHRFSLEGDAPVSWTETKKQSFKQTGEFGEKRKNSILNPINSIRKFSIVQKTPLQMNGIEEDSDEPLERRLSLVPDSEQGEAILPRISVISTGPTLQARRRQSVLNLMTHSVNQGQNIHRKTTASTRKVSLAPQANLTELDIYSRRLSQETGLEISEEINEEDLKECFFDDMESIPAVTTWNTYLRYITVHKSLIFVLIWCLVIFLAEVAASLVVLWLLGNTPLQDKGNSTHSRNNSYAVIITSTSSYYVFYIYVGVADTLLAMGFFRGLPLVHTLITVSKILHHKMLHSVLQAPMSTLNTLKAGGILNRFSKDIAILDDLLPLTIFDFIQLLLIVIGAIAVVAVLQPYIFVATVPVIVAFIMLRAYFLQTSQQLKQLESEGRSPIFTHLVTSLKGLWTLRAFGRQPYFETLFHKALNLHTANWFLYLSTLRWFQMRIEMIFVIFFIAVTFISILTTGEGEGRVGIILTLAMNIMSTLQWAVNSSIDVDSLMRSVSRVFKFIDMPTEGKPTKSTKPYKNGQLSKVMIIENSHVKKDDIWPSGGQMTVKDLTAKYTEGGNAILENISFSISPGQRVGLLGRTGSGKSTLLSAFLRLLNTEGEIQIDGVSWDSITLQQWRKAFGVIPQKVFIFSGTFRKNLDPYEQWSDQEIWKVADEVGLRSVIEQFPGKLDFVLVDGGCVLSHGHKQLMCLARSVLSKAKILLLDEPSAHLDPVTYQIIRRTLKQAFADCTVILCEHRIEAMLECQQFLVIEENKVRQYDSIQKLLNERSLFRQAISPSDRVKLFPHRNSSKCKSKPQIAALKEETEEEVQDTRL
T1 sequence (P13569 423-646 limits assumed): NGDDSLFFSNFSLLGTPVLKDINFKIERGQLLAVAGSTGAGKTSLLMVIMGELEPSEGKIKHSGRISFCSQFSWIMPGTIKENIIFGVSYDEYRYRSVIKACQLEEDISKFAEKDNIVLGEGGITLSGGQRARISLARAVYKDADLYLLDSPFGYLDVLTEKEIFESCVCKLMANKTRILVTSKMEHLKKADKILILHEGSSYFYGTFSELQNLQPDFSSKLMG

SMILES	DSLS 3D (100 μM ΔT) (NBD1)	TECC (AUC, 10 μM) (CFTR)
[2H]C([2H])([2H])C1(c2cccc(/C=C(\C)C(=O)O)c2)CCCC(C)(C)CS(=O)(=O)CCc2c(c(F)cc3[nH]ccc23)Oc2ccc(F)c(c2)-c2nc1nn2C (single isomer, unassigned) [Compound 16B, (E)-3-[3-[22,28-difluoro-3,10,10-trimethyl-12,12-dioxo-6-(trideuteriomethyl)-24-oxa-12lambda6-thia-3,4,19,30-tetrazapentacyclo[23.3.1.12,5.015,23.016,20]triaconta-1(29),2(30),4,15,17,20,22,25,27-nonaen-6-yl]phenyl]-2-methyl-prop-2-enoic acid]	C (a value greater than 10 °C and less than or equal to 25 °C is marked “C”)	A (a TECC value less than 12 is marked “A”)
C/C(=C\c1cccc(C2(C)CCCC(C)(C)CS(=O)(=O)CCc3c(c(F)cc4[nH]ccc34)Cc3ccc(F)c(c3)-c3nc2nn3C)c1)C(=O)O (single isomer, unassigned) [Compound 166A, (E)-3-[3-(22,28-difluoro-3,6,10,10-tetramethyl-12,12-dioxo-12λ6-thia-3,4,19,30-tetrazapentacyclo-[23.3.1.12,5.015,23.016,20]triaconta-1(29),2(30),4,15,17,20,22,25,27-nonaen-6-yl)phenyl]-2-methyl-prop-2-enoic Acid]	C (a value greater than 10 °C and less than or equal to 25 °C is marked “C”)	B (a value between 12-20 is marked “B”)
C[C@H](Cc1cccc(C2(C)CCCC(C)(C)CS(=O)(=O)CCc3c(c(F)cc4[nH]ccc34)Oc3ccc(F)c(c3)-c3nc2c[nH]3)c1)C(=O)O (single isomer, unassigned) [Compound 157B]	C (a value greater than 10 °C and less than or equal to 25 °C is marked “C”)	A (a TECC value less than 12 is marked “A”)
C[C@@H](Cc1cccc(C2(C)CCCC(C)(C)CS(=O)(=O)CCc3c(c(F)cc4[nH]ccc34)S(=O)(=O)c3ccc(F)c(c3)-c3nc2nn3C)n1)C(=O)O (single isomer, unassigned) [Compound 180A]	C (a value greater than 10 °C and less than or equal to 25 °C is marked “C”)	B (a value between 12-20 is marked “B”)
Cn1nc2nc1-c1cc(ccn1)[S+]([O-])c1c(F)c(F)c3[nH]ccc3c1CCS(=O)(=O)CC(C)(C)CCC[C@]2(C)c1cccc(CC(C)(C)C(=O)O)c1 (single isomer, unassigned) [Compound 274]	C (a value greater than 10 °C and less than or equal to 25 °C is marked “C”)	C (a value between 20 and 80 is marked “C”)
C[C@H](Cc1cccc(C2(C)CCCC(C)(C)CS(=O)(=O)CCc3c(c(F)cc4[nH]ccc34)[S+]([O-])c3ccc(F)c(c3)-c3nc2nn3C)n1)C(=O)O (single isomer, unassigned) [Compound 181A]	B (a value above 5 °C and less than or equal to 10 °C is marked “B”)	A (a TECC value less than 12 is marked “A”)
CC(Cc1cccc(C2(C)CCS(=O)(=O)CCS(=O)(=O)CCc3c(c(F)cc4[nH]ccc34)Oc3ccc(F)c(c3)-c3nc2nn3C)c1)C(=O)O (centres unmarked) [Compound 112, 3-[3-(22,28-Difluoro-3,6-dimethyl-9,9,12,12-tetraoxo-24-oxa-9lambda6,12lambda6-dithia-3,4,19,30-tetrazapentacyclo[23.3.1.12,5.015,23.016,20]triaconta-1(29),2(30),4,15,17,20,22,25,27-nonaen-6-yl)phenyl]-2-methyl-propanoic Acid]	B (a value above 5 °C and less than or equal to 10 °C is marked “B”)	A (a TECC value less than 12 is marked “A”)
Cn1nc2nc1-c1cc(ccn1)Sc1c(F)c(F)c3[nH]ccc3c1CCS(=O)(=O)CC(C)(C)CCC[C@]2(C)c1cccc(CC(C)(C)C(=O)O)c1 [Compound 275, 3-[3-[(6R)-21,22-Difluoro-3,6,10,10-tetramethyl-12,12-dioxo-12λ6,24-dithia-3,4,19,28,30-pentazapentacyclo[23.3.1.12,5.015,23.016,20]triaconta-1(29),2(30),4,15,17,20,22,25,27-nonaen-6-yl]phenyl]-2,2-dimethyl-propanoic Acid]	C (a value greater than 10 °C and less than or equal to 25 °C is marked “C”)	C (a value between 20 and 80 is marked “C”)
C[C@H](Cc1cccc([C@@]2(C)CCCC(C)(C)CS(=O)(=O)CCc3c(c(F)cc4[nH]ccc34)Oc3ccnc(c3)-c3nc2nn3C)c1)C(=O)O [Compound 197, (2R)-3-[3-[(6R)-22-Fluoro-3,6,10,10-tetramethyl-12,12-dioxo-24-oxa-12λ6-thia-3,4,19,28,30-pentazapentacyclo[23.3.1.12,5.015,23.016,20]triaconta-1(29),2(30),4,15,17,20,22,25,27-nonaen-6-yl]phenyl]-2-methyl-propanoic Acid]	C (a value greater than 10 °C and less than or equal to 25 °C is marked “C”)	C (a value between 20 and 80 is marked “C”)
C[C@@H](Cc1cccc(C2(C)CCCC(C)(C)CS(=O)(=O)CCc3c(c(F)cc4[nH]ccc34)C(=O)c3ccc(F)c(c3)-c3nc2nn3C)c1)C(=O)O (single isomer, unassigned) [Compound 125A]	B (a value above 5 °C and less than or equal to 10 °C is marked “B”)	B (a value between 12-20 is marked “B”)
CC(Cc1cccc(C2(CN)CCCC(C)(C)CS(=O)(=O)CCc3c(c(F)cc4[nH]ccc34)Oc3ccc(F)c(c3)-c3nc2nn3C)c1)C(=O)O (single isomer, unassigned) [Compound 136B, 3-[3-[6-(aminomethyl)-22,28-difluoro-3,10,10-trimethyl-12,12-dioxo-24-oxa-12λ6-thia-3,4,19,30-tetrazapentacyclo-[23.3.1.12,5.015,23.016,20]triaconta-1(29),2(30),4,15,17,20,22,25,27-nonaen-6-yl]phenyl]-2-methyl-propanoic Acid]	C (a value greater than 10 °C and less than or equal to 25 °C is marked “C”)	C (a value between 20 and 80 is marked “C”)
Cn1nc2nc1-c1cc(ccc1F)Oc1c(F)cc3[nH]ccc3c1CCS(=O)(=O)CCC(F)(F)CCC2(C)c1cccc(CCC(=O)O)c1 (single isomer, unassigned) [Compound 2B, 3-[3-(9,9,22,28-Tetrafluoro-3,6-dimethyl-12,12-dioxo-24-oxa-12λ^6-thia-3,4,19,30-tetrazapentacyclo[23.3.1.1^2,5.0^15,23.0^16,20]triaconta-1(29),2(30),4,15,17,20,22,25,27-nonaen-6-yl)phenyl]propanoic Acid]	A (an ΔTagg value less than or equal to 5 °C is marked “A”)	A (a TECC value less than 12 is marked “A”)
Cn1nc2nc1-c1cc(ccn1)Oc1c(F)cc3[nH]ccc3c1CCS(=O)(=O)CC(C)(C)CCC[C@]2(C)c1cccc(CCC(=O)O)c1 (racemic) [Compound 228, 3-[3-[rac-(6R)-22-fluoro-3,6,10,10-tetramethyl-12,12-dioxo-24-oxa-12λ6-thia-3,4,19,28,30-pentazapentacyclo[23.3.1.12,5.015,23.016,20]triaconta-1(29),2(30),4,15,17,20,22,25,27-nonaen-6-yl]phenyl]propanoic acid]	C (a value greater than 10 °C and less than or equal to 25 °C is marked “C”)	C (a value between 20 and 80 is marked “C”)
COC(=O)CCc1cccc(C2(C)CCCC(C)(C)CS(=O)(=O)CCc3c(c(F)cc4[nH]ccc34)C(=O)c3ccc(F)c(c3)-c3nc2nn3C)c1 (single isomer, unassigned) [Compound 31B, methyl 3-[3-[22,28-difluoro-3,6,10,10-tetramethyl-12,12,24-trioxo-12lambda6-thia-3,4,19,30-tetrazapentacyclo[23.3.1.12,5.015,23.016,20]triaconta-1(29),2(30),4,15,17,20,22,25,27-nonaen-6-yl]phenyl]propanoate]	A (an ΔTagg value less than or equal to 5 °C is marked “A”)	B (a value between 12-20 is marked “B”)
CC1(C)CCCC(c2cccc(CCC(=O)O)c2)n2ccc(n2)-c2cc(ccc2F)Oc2c(F)cc3[nH]ccc3c2CCS(=O)(=O)C1 (single isomer, unassigned) [Compound 24B, 3-[3-[22,28-difluoro-10,10-dimethyl-12,12-dioxo-24-oxa-12lambda6-thia-5,19,30-triazapentacyclo[23.3.1.12,5.015,23.016,20]triaconta-1(29),2(30),3,15,17,20,22,25,27-nonaen-6-yl]phenyl]propanoic Acid]	C (a value greater than 10 °C and less than or equal to 25 °C is marked “C”)	A (a TECC value less than 12 is marked “A”)
Cn1nc2nc1-c1cc(ccc1F)Oc1c(F)cc3[nH]ccc3c1CCS(=O)(=O)CC(C)(C)OCCC2(C)c1cccc(CCO)c1 (centres unmarked) [Compound 78, 2-[3-(22,28-Difluoro-3,6,10,10-tetramethyl-12,12-dioxo-9,24-dioxa-12lambda6-thia-3,4,19,30-tetrazapentacyclo-[23.3.1.12,5.015,23.016,20]triaconta-1(29),2(30),4,15,17,20,22,25,27-nonaen-6-yl)phenyl]-ethanol]	B (a value above 5 °C and less than or equal to 10 °C is marked “B”)	A (a TECC value less than 12 is marked “A”)
